# Laboratory results from PMC11109155, “Cell-free biosynthesis and engineering of ribosomally synthesized lanthipeptides” (Nature Communications, 2024).
# Legend:
# [1] = test system: Staphylococcus aureus RN4220; experiment: Agar diffusion assay (diameter of zone of inhibition); type: cell-based; settings: for DZI, diameter of zone of inhibition: LB agar, 6 mm paper disks, 37 °C 16 h, peptides 1 mM (SalB & B-1: cell-free synthesized, purified mixture; SalB and SalB-1: produced in vivo, purified), Kan 50 μg/mL positive control, representative of n = 3; for Antimicrobial activity against Staphylococcus aureus RN4220 (in words): agar diffusion assay, in vivo and cell-free produced peptides, 1 mM
# Text: Fig. 2 In vitro expression, modification, and maturation of salivaricin B in UniBioCat. a The gene cluster (top) and catalytic steps (bottom) of salivaricin B biosynthesis. Dha, dehydroalanine; Dhb, dehydrobutyrine; Abu, α-aminobutyric acid. b Western-blot analysis of the cell-free expressed precursor peptide (left: SboA, 7.8 kDa) and modification enzymes [right: SboM (113 kDa) and SboT (83 kDa) are co-expressed]. Peptides/enzymes are labeled with the anti-His antibody. M, protein marker; T, total protein; S, soluble protein. Results were reproduced three times independently; representative data are shown. c MALDI-TOF-MS analysis of the precursor peptide (left: 6x His-tagged SboA, [M + H]^+ m/z = 7355) and modified precursor peptides (right: dehydrated 6x His-tagged SboA, [M-H2O + H]^+ m/z = 7337, [M-2H2O + H]^+ m/z = 7319, and [M−4H2O + H]^+ m/z = 7283). d MALDI-TOF-MS (left), LC-MS (middle), and MS/MS (right) analysis of matured salivaricin B. e MALDI-TOF-MS (left), LC-MS (middle), and MS/MS (right) analysis of the analog salivaricin B−1 with one additional amino acid alanine at the N-terminus. f Antimicrobial activity assay of salivaricin B (SalB) and salivaricin B-1 (SalB-1). “SalB & B-1” was cell-free synthesized and purified for the activity assay (note that the sample used was a mixture of SalB and B-1 with a concentration of 1 mM for the test). For in vivo produced SalB and SalB-1, 1 mM of each purified SalB and SalB-1 was used for the activity assay. NC, negative control; Kan, kanamycin (50 μg/mL) as a positive control; DZI, diameter of zone of inhibition (in mm). Data shown representative of three independent experiments (n = 3). Source data are provided as a Source Data file. TEXT PRINTED IN THE PICTURE: (f) Kan: DZI: 22 | (f) SalB & B-1 (UniBioCat): DZI: 7.5 | (f) SalB (in vivo): DZI: 7.5 | (f) SalB-1 (in vivo): DZI: 9.5
# Two approaches were used for testing antimicrobial activity, including solid agar plate diffusion and liquid medium cultivation. In the diffusion assay, the overnight cultivated indicator strain S. aureus RN4220 was mixed with the melted LB agar medium (a starting OD600 of 0.05). The mixture was poured onto the plate and allowed to solidify at room temperature for 30 min. Then, sterile paper disks (diameter 6 mm) were placed on the surface of the agar plate and 1 mM of each peptide was added to the paper disk. The plates were incubated at 37 °C for 16 h, and the diameter of the zone of inhibition (DZI, in mm) was measured for comparison. In the second approach, the assay was performed in 96-well plates, and cell-free synthesized mature peptides were directly used without purification. For the samples of salivaricin B variants, 80 μL of each sample (diluted if necessary) was mixed with 120 μL of LB medium, containing each variant at a roughly final concentration of 6–7 μM and the indicator strain S. aureus RN4220 (a starting OD600 of 0.02). For the samples of uncharacterized (Lan 1 - Lan 10) and three known (lacticin 481, ruminococcin A, and nukacin ISK-1) lanthipeptides, 80 μL of the cell-free reaction mixture was added directly to the liquid cultivation without quantification. The 96-well plates were incubated at 37 °C and 150 rpm for 12 h. During the cultivation, OD600 values were measured every 2 h and ΔOD600 was calculated to compare the antimicrobial activity of tested samples. In all assays, kanamycin was used as a positive for comparison.
# S. aureus RN4220 [2] = experiment: Liquid medium cultivation in 96-well plates, growth inhibition as ΔOD600; type: cell-based, Staphylococcus aureus; settings: peptides produced in vivo and purified, Supplementary Fig. 12 (50 μM, liquid) and Fig. 2f (1 mM, agar diffusion)
# Text: Fig. 3 Generation of salivaricin B mutants and their antimicrobial activity. a Representative MALDI-TOF-MS analyses of single-site mutagenesis at the position of Q6 or L20. b Representative MALDI-TOF-MS analyses of two-site mutagenesis at the positions of Q6 and L20. In (a) and (b), salivaricin B-1 based variants are the most abundant products in all analyses, which are indicated with the [M + H]^+ ions. c Quantification of salivaricin B mutants that are synthesized in UniBioCat reactions (see Supplementary Table 5 for the yield of each peptide variant). d Antimicrobial activity assay showing ΔOD600 profiles of S. aureus RN4220 growth treated with single-site (top) and two-site (bottom) mutants. […]
# Two approaches were used for testing antimicrobial activity, including solid agar plate diffusion and liquid medium cultivation. […] The plates were incubated at 37 °C for 16 h, and the diameter of the zone of inhibition (DZI, in mm) was measured for comparison. […] For the samples of uncharacterized (Lan 1 - Lan 10) and three known (lacticin 481, ruminococcin A, and nukacin ISK-1) lanthipeptides, 80 μL of the cell-free reaction mixture was added directly to the liquid cultivation without quantification. […] During the cultivation, OD600 values were measured every 2 h and ΔOD600 was calculated to compare the antimicrobial activity of tested samples. […]
# Lactococcus lactis = experiment: MIC (broth microdilution) and IC50 determination; type: cell-based; settings: LB, 30 °C, 130 rpm
# Procedure: (§1) MIC values were determined by using a broth microdilution method. Overnight cultures of each indicator strain were diluted to 5 × 10^5 CFU mL^−1 using fresh LB medium and distributed into 96-well plates. Then, the cells were treated with twofold serial dilutions of the purified peptides (i.e., salivaricin B and variants). The total volume of each cultivation was 200 μL per well, consisting of 175 μL bacteria cells and 25 μL diluted peptides. The final concentrations of each peptide were set at 0.12, 0.25, 0.5, 1, 2, 4, 8, and 16 μM. The positive growth control wells only contained bacterial cells without addition of peptides. The plates were incubated with 130 rpm at 37 °C for B. subtilis and M. luteus and 30 °C for L. lactic. After incubation, the lowest peptide concentration, which inhibited 90% of the bacterial growth, was recorded as the MIC. The growth curves were used to determine IC50 values with GraphPad Prism (version 10.2.1, GraphPad Software).
# (§2) Supplementary Table 6 Minimal inhibitory concentrations (MIC) and IC50 of salivaricin B and variants.
# (§3) Bacillus subtilis Micrococcus luteus Lactococcus lactis
# (§4) Peptides MIC IC50 MIC IC50 MIC IC50
# (§5) (μM) (μM) (μM) (μM) (μM) (μM)
# (§6) Source data are provided as a Source Data file.
# Bacillus subtilis = experiment: MIC (broth microdilution) and IC50 determination; type: cell-based; settings: LB, 37 °C, 130 rpm
# Procedure: as §1, §2, §3, §4, §5, §6
# Micrococcus luteus = experiment: MIC (broth microdilution) and IC50 determination; type: cell-based; settings: LB, 37 °C, 130 rpm
# Procedure: as §1, §2, §3, §4, §5, §6
# S. aureus RN4220 [3] = experiment: MIC and IC50 assay with the indicator strain S. aureus RN4220; type: cell-based, Staphylococcus aureus; settings: purified peptides produced in vivo
# Procedure: We next sought to test the antimicrobial activity of the mutated salivaricin B variants against the indicator strain S. aureus RN4220. To compare their activity, we first determined the concentrations of all peptide variants synthesized in UniBioCat reactions (Fig. 3c and Supplementary Table 5) and added an equal amount of each variant to the cell culture in 96-well plates. During the cultivation, OD600 values were measured every 2 h for a total of 12 h. […] Based on the single-site mutagenesis and activity assay, we performed a second-round mutation with two-site mutagenesis at both Q6 and L20 using eight selected variants (the combination leads to 15 two-site mutated variants). All these new variants could be synthesized and detected by MALDI-TOF-MS (see Fig. 3b for representative analyses). […] To further verify their activity and compare to standard in vivo approaches, six variants including single- and two-site mutation were selected to be produced by in vivo expression/modification and in vitro digestion for maturation. […] Additionally, we evaluated the MIC and IC50 of four strong variants (see Supplementary Fig. 12 for SalB_Q6H, SalB_L20M, SalB_L20I-Q6H, and SalB_L20M-Q6H) against three other indicator strains, including Bacillus subtilis, Micrococcus luteus, and Lactococcus lactis.
# MIC values were determined by using a broth microdilution method. […]
# [4] = read-out: IC50 of salivaricin B, previous report; cited from earlier work
# Procedure: We next sought to test the antimicrobial activity of the mutated salivaricin B variants against the indicator strain S. aureus RN4220. To compare their activity, we first determined the concentrations of all peptide variants synthesized in UniBioCat reactions (Fig. 3c and Supplementary Table 5) and added an equal amount of each variant to the cell culture in 96-well plates. During the cultivation, OD600 values were measured every 2 h for a total of 12 h. […] Based on the ...
# [5] = broth microdilution, 5 × 10^5 CFU mL^−1, purified peptides 0.12–16 μM twofold dilutions, lowest concentration inhibiting 90% of growth
# [6] = from growth curves, GraphPad Prism, purified peptides 0.12–16 μM
Compound,"DZI, diameter of zone of inhibition [1] [mm]","Antimicrobial activity compared with salivaricin B, purified peptides (in words) (S. aureus RN4220 [2])",Antimicrobial activity against Staphylococcus aureus RN4220 (in words) [1],"MIC, Lactococcus lactis (Lactococcus lactis; [5]) [µM]",IC50 (Lactococcus lactis; [6]) [nM],"MIC, Bacillus subtilis (Bacillus subtilis; [5]) [µM]",IC50 (Bacillus subtilis; [6]) [nM],"MIC, Micrococcus luteus (Micrococcus luteus; [5]) [µM]",IC50 (Micrococcus luteus; [6]) [nM],IC50 (S. aureus RN4220 [3]) [nM],IC50 [4] [nM]
"NC[C@H]1O[C@H](O[C@H]2[C@H](O)[C@@H](O[C@H]3O[C@H](CO)[C@@H](O)[C@H](N)[C@H]3O)[C@H](N)C[C@@H]2N)[C@H](O)[C@@H](O)[C@@H]1O [Kan, kanamycin, reference compound]",22,–,–,–,–,–,–,–,–,–,–
"AGGGVIQAbuIAlaHEAlaRMNAlaWQFLFDhbAlaAlaS (bicyclic or more) [Salivaricin B-1, salivaricin B-1, salivaricin B-like peptide with one additional amino acid alanine at the N-terminus]",9.5,even higher antimicrobial activity than salivaricin B,clear inhibitory effects on cell growth,–,–,–,–,–,–,–,–
"GGGVIQAbuIAlaHEAlaRMNAlaWQFLFDhbAlaAlaS (bicyclic or more) [Salivaricin B, salivaricin B, class II lanthipeptide naturally produced by Streptococcus salivarius K12; wild type, made cell-free or in vivo]",7.5,–,clear inhibitory effects on cell growth,4,1670 ± 80,4,1880 ± 10,2,1190 ± 50,> 8000,8640
